This passage reports Ki results from BindingDB's records for doi:10.1021/jm401798r (University of Michigan, 2014).

As usually defined, the Ki is a dissociation constant, usually derived from enzyme kinetics or from competition with a known ligand.

In assay [1] the target is D(3) dopamine receptor (Homo sapiens, UniProt P35462). Nature of the assay: Displacement of [3H]N-methylspiperone from human dopamine D3 receptor expressed in HEK293 cells after 1 hr by liquid scintillation counting analysis. For orientation: Loss of bound radioactivity is the signal in a displacement assay; it reports binding, not function.
Assay [2] deals with D(3) dopamine receptor (Rattus norvegicus, UniProt P19020). Nature of the assay: Displacement of [3H]R-(+)-7-OHDPAT from dopamine D3 receptor in Sprague-Dawley rat ventral striatum after 90 mins.
The target of a further assay is D(2) dopamine receptor (Homo sapiens, UniProt P14416). Nature of the assay: Displacement of [3H]N-methylspiperone from human dopamine D2 receptor expressed in HEK293 cells after 1 hr by liquid scintillation counting analysis.

The structures appear in SMILES notation.

D(2) dopamine receptor, sequence (P14416 whole entry): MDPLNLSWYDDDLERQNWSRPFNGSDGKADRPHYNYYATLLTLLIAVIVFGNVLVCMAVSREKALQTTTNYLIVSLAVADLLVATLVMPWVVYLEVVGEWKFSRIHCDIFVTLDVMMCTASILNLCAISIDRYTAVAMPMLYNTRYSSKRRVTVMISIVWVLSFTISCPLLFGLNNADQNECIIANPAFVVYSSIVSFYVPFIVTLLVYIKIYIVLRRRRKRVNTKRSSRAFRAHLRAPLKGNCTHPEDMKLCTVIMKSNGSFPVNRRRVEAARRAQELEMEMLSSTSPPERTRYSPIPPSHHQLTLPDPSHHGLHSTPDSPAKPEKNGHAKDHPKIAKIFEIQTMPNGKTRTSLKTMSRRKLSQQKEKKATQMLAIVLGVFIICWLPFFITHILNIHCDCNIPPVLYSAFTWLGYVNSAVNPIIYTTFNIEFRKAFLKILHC
D(3) dopamine receptor (Homo sapiens, UniProt P35462), sequence (P35462 as listed by the source): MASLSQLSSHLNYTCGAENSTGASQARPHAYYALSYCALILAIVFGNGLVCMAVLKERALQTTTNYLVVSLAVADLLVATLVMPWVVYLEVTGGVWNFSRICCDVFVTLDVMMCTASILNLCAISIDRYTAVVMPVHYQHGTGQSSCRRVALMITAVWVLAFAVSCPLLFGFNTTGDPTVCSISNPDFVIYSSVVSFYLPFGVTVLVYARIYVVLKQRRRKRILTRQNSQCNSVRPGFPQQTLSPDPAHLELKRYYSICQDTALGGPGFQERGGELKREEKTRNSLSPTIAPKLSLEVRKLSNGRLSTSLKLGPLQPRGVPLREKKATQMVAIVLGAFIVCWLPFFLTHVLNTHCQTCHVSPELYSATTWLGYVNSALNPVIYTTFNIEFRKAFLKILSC
D(3) dopamine receptor (Rattus norvegicus, UniProt P19020), sequence (P19020 whole entry): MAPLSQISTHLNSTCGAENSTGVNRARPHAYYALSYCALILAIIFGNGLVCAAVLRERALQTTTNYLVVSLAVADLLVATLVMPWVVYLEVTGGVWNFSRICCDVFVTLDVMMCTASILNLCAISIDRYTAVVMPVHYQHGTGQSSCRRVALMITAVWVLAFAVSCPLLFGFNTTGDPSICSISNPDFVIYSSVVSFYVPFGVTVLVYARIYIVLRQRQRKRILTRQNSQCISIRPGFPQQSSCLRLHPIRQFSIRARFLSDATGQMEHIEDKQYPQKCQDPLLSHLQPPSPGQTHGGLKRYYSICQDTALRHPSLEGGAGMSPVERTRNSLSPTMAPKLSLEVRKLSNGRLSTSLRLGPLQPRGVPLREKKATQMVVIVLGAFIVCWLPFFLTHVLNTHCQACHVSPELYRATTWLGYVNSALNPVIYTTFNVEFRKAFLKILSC

Take `CCCN(CC[C@]1(O)C[C@@H](NC(=O)c2ccc3ccccc3c2)C1)[C@H]1C[C@@H]1c1cccc(Cl)c1`: the inhibition constant (Ki) on D(3) dopamine receptor [1] is 38 nM; at D(3) dopamine receptor [2], 28 nM; on D(2) dopamine receptor, 1220 nM.

Turning to `CCCN(CC[C@]1(O)C[C@@H](NC(=O)c2ccc3ccccc3c2)C1)[C@H]1C[C@@H]1c1ccccc1Cl`, the Ki at D(3) dopamine receptor [1] was found to be 22 nM; at D(3) dopamine receptor [2] it was 19 nM; at D(2) dopamine receptor, 923 nM.

For the compound `CCCN(CC[C@]1(O)C[C@@H](NC(=O)c2ccc3ccccc3c2)C1)C1CC1c1ccc(Cl)cc1` (some centres undefined), the inhibition constant Ki at D(3) dopamine receptor [1] came to 2.6 nM; on D(3) dopamine receptor [2] it was 4.6 nM; at D(2) dopamine receptor, 667 nM.
